Experiment: Dissolution test of amorphous Itraconazole drug beads versus crystalline Itraconazole (FIG. 1)
Type: physicochemical
Conditions: over the same time period
Source text: Quantities of Itraconazole and Pluronic™ F68 in a ratio of 9 parts Itraconazole to 1 part Pluronic™ F68 were melted separately in an oil bath. Once both components were completely melted, they were combined, emulsified with high shear, and poured onto a cold plate to cool rapidly.

dissolution rate (percent dissolution versus time): 20%
SMILES: CCC(C)n1ncn(-c2ccc(N3CCN(c4ccc(OCC5COC(Cn6cncn6)(c6ccc(Cl)cc6Cl)O5)cc4)CC3)cc2)c1=O (stereo not shown) [crystalline Itraconazole, 4-[4-[4-[4-[[2-(2,4-Dichlorophenyl)-2-(1H-1,2,4-triazol-1-ylmethyl)-1,3-dioxolan-4-yl]methoxy]phenyl]-1-piperazinyl]phenyl]-2,4-dihydro-2-(1-methylpropyl)-3H-1,2,4-triazol-3-one]
